Measurements as given in the supplement of paper PMC4932681.
Where a name gives a salt, the structure may show the parent alone.

Columns and labels:
BT-474 Tam2 [1] = experiment: relative IC50 (midpoint of fitted logistic curve, plateau may be below 50% inhibition; CellTiter-Glo viability); higher = less potent; settings: 4-OH-tamoxifen in medium 1 µM; 72 h
In short: (§1)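 After seeding into 384-well plates with library drugs at five concentrations spanning a 10 000-fold range, breast cancer cell lines and their resistant derivatives were incubated 72 h at 37 °C. Resistant lines received medium with 1 μM of the selecting drug. CellTiter-Glo signal was read on a PHERAstar and scaled to vehicle-only and positive controls. Drug sensitivity score, relative IC50 (the curve midpoint) and top-dose inhibition came from logistic fits run in the Breeze pipeline.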

ZR-75-1 Tam1 [2] = experiment: as above; settings: 4-OH-tamoxifen in medium 1 µM; 72 h
In short: as §1

BT-474 Tam1 [3] = experiment: as above; settings: 4-OH-tamoxifen in medium 1 µM; 72 h
In short: as §1

ZR-75-1 Tam2 [4] = experiment: as above; settings: 4-OH-tamoxifen in medium 1 µM; 72 h
In short: as §1

T-47D Tam2 [5] = experiment: as above; settings: 4-OH-tamoxifen in medium 1 µM; 72 h
In short: as §1

BT-474 [6] = experiment: as above; settings: 72 h
In short: as §1

MCF-7 Tam1 [7] = experiment: as above; settings: 4-OH-tamoxifen in medium 1 µM; 72 h
In short: as §1

T-47D Tam1 [8] = experiment: as above; settings: 4-OH-tamoxifen in medium 1 µM; 72 h
In short: as §1

MCF-7 [9] = experiment: as above; settings: 72 h
In short: as §1

T-47D [10] = experiment: as above; settings: 72 h
In short: as §1

ZR-75-1 [11] = experiment: as above; settings: 72 h
In short: as §1

BT-474 Tam2 [12] = experiment: drug sensitivity score (DSS) (DSS (dimensionless)); higher = more sensitive; extreme values may be limits of the assay; settings: 4-OH-tamoxifen in medium 1 µM; 72 h
In short: as §1

ZR-75-1 Tam1 [13] = experiment: as above; settings: 4-OH-tamoxifen in medium 1 µM; 72 h
In short: as §1

BT-474 Tam1 [14] = experiment: as above; settings: 4-OH-tamoxifen in medium 1 µM; 72 h
In short: as §1

ZR-75-1 Tam2 [15] = experiment: as above; settings: 4-OH-tamoxifen in medium 1 µM; 72 h
In short: as §1

T-47D Tam2 [16] = experiment: as above; settings: 4-OH-tamoxifen in medium 1 µM; 72 h
In short: as §1

BT-474 [17] = experiment: as above; settings: 72 h
In short: as §1

MCF-7 Tam1 [18] = experiment: as above; settings: 4-OH-tamoxifen in medium 1 µM; 72 h
In short: as §1

T-47D Tam1 [19] = experiment: as above; settings: 4-OH-tamoxifen in medium 1 µM; 72 h
In short: as §1

MCF-7 [20] = experiment: as above; settings: 72 h
In short: as §1

T-47D [21] = experiment: as above; settings: 72 h
In short: as §1

ZR-75-1 [22] = experiment: as above; settings: 72 h
In short: as §1

Row | SMILES | relative IC50 (BT-474 Tam2 [1]) | relative IC50 (ZR-75-1 Tam1 [2]) | relative IC50 (BT-474 Tam1 [3]) | relative IC50 (ZR-75-1 Tam2 [4]) | relative IC50 (T-47D Tam2 [5]) | relative IC50 (BT-474 [6]; 4-OH-tamoxifen in medium 0 µM) | relative IC50 (BT-474 [6]; 4-OH-tamoxifen in medium 1 µM) | relative IC50 (MCF-7 Tam1 [7]) | relative IC50 (T-47D Tam1 [8]) | relative IC50 (MCF-7 [9]; 4-OH-tamoxifen in medium 1 µM) | relative IC50 (T-47D [10]; 4-OH-tamoxifen in medium 0 µM) | relative IC50 (T-47D [10]; 4-OH-tamoxifen in medium 1 µM) | relative IC50 (ZR-75-1 [11]; 4-OH-tamoxifen in medium 0 µM) | relative IC50 (ZR-75-1 [11]; 4-OH-tamoxifen in medium 1 µM) | drug sensitivity score (BT-474 Tam2 [12]) | drug sensitivity score (ZR-75-1 Tam1 [13]) | drug sensitivity score (BT-474 Tam1 [14]) | drug sensitivity score (ZR-75-1 Tam2 [15]) | drug sensitivity score (T-47D Tam2 [16]) | drug sensitivity score (BT-474 [17]; 4-OH-tamoxifen in medium 0 µM) | drug sensitivity score (BT-474 [17]; 4-OH-tamoxifen in medium 1 µM) | drug sensitivity score (MCF-7 Tam1 [18]) | drug sensitivity score (T-47D Tam1 [19]) | drug sensitivity score (MCF-7 [20]; 4-OH-tamoxifen in medium 0 µM) | drug sensitivity score (MCF-7 [20]; 4-OH-tamoxifen in medium 1 µM) | drug sensitivity score (T-47D [21]; 4-OH-tamoxifen in medium 0 µM) | drug sensitivity score (T-47D [21]; 4-OH-tamoxifen in medium 1 µM) | drug sensitivity score (ZR-75-1 [22]; 4-OH-tamoxifen in medium 0 µM) | drug sensitivity score (ZR-75-1 [22]; 4-OH-tamoxifen in medium 1 µM) | relative IC50 (MCF-7 [9]; 4-OH-tamoxifen in medium 0 µM)
1 | CCNC(=O)CCC/C=C\C[C@@H]1[C@@H](/C=C/[C@@H](O)CCc2ccccc2)[C@H](O)C[C@@H]1O [Bimatoprost] | > 5.5 µM | > 5.5 µM | > 5.5 µM | > 5.5 µM | > 5.5 µM | > 5.5 µM | > 5.5 µM | > 5.5 µM | > 5.5 µM | > 5.5 µM | > 5.5 µM | > 5.5 µM | > 5.5 µM | > 5.5 µM | 0 | 0 | 0 | 0 | 0 | 0 | 0 | 0 | 0 | 0 | 0 | 0 | 0.0302 | 0 | 0 | –
2 | Nc1nc(=O)c2c([nH]1)NCC(CNc1ccc(C(=O)N[C@@H](CCC(=O)O)C(=O)O)cc1)N2C=O (mixture of isomers) [Folinic acid] | > 990 µM | > 990 µM | > 990 µM | > 990 µM | > 990 µM | > 990 µM | > 990 µM | > 990 µM | > 990 µM | > 990 µM | > 990 µM | > 990 µM | > 990 µM | > 990 µM | 0 | 0 | 0 | 0 | 0 | 0 | 0 | 0 | 0 | 0 | 0 | 0 | 0 | 0.942 | 0 | > 990 µM
3 | Cc1cccc(-c2nn3c(c2-c2ccnc4ccc(C(N)=O)cc24)CCC3)n1 | > 1 µM | > 1 µM | > 1 µM | > 1 µM | > 1 µM | > 1 µM | > 1 µM | > 1 µM | > 1 µM | – | > 1 µM | > 1 µM | > 1 µM | > 1 µM | 0 | 0 | 0 | 0 | 0 | 0 | 0 | 0 | 0 | 0 | 0.246 | 0 | 0 | 0 | 0 | > 1 µM
4 | O=P(O)(NCCCl)NCCCl [Ifosfamide mustard] | > 10 µM | > 10 µM | > 10 µM | > 10 µM | > 10 µM | > 10 µM | > 10 µM | > 10 µM | > 10 µM | > 10 µM | > 10 µM | > 10 µM | > 10 µM | > 10 µM | 0 | 0 | 0 | 0 | 0 | 0 | 0 | 0 | 0 | 0 | 0 | 0 | 0 | 0 | 0 | > 10 µM
5 | CCc1c(C(=O)C(N)=O)c2c(OCC(=O)O)cccc2n1Cc1ccccc1 [Varespladib] | > 10 µM | > 10 µM | > 10 µM | > 10 µM | > 10 µM | > 10 µM | > 10 µM | > 10 µM | > 10 µM | > 10 µM | > 10 µM | > 10 µM | > 10 µM | > 10 µM | 0 | 0 | 0 | 0 | 0 | 0 | 0 | 0 | 0 | 0.0495 | 0 | 0 | 0 | 0 | 0 | –
6 | NC(=O)NO [Hydroxyurea] | > 100 µM | > 100 µM | > 100 µM | > 100 µM | > 100 µM | > 100 µM | – | > 100 µM | > 100 µM | – | > 100 µM | > 100 µM | > 100 µM | > 100 µM | 0 | 0 | 0 | 0 | 0 | 0 | 0.154 | 0 | 0 | 0 | 0 | 0 | 0 | 0 | 0 | > 100 µM
7 | N.N.[Cl][Pt][Cl] [Cisplatin] | > 10 µM | > 10 µM | > 10 µM | > 10 µM | > 10 µM | > 10 µM | > 10 µM | > 10 µM | > 10 µM | > 10 µM | > 10 µM | > 10 µM | > 10 µM | > 10 µM | 0 | 0 | 0 | 0 | 0 | 0 | 0 | 0 | 0 | 0 | 0 | 0 | 0 | 0 | 0 | > 10 µM
8 | c1ccc([C@H]2CN3CCSC3=N2)cc1 [Levamisole, (Tetramisole hydrochloride)] | > 10 µM | > 10 µM | > 10 µM | > 10 µM | > 10 µM | > 10 µM | > 10 µM | > 10 µM | > 10 µM | > 10 µM | > 10 µM | > 10 µM | > 10 µM | > 10 µM | 0 | 0 | 0 | 0 | 0 | 0 | 0 | 0 | 0 | 0 | 0 | 0 | 0 | 0 | 0 | > 10 µM
9 | COc1nc(N)nc2c1ncn2[C@@H]1O[C@H](CO)[C@@H](O)[C@@H]1O [Nelarabine] | > 10 µM | > 10 µM | > 10 µM | > 10 µM | > 10 µM | > 10 µM | > 10 µM | > 10 µM | > 10 µM | > 10 µM | > 10 µM | > 10 µM | – | > 10 µM | 0 | 0 | 0 | 0 | 0 | 0 | 0 | 0 | 0 | 0.277 | 0 | 0 | 0 | 0.0337 | 0 | –
10 | C=CCNC1=C2C[C@@H](C)C[C@H](OC)[C@H](O)[C@@H](C)/C=C(\C)[C@H](OC(N)=O)[C@@H](OC)/C=C\C=C(/C)C(=O)NC(=CC1=O)C2=O [Tanespimycin  (17-AAG)] | 0.0386 µM | 0.284 µM | 0.0274 µM | 0.118 µM | 2.18 µM | 0.0422 µM | 0.0424 µM | 0.444 µM | 1.64 µM | 0.0656 µM | 1.55 µM | 0.939 µM | 0.0745 µM | 0.141 µM | 23.1 | 7.79 | 24 | 11.6 | 3.1 | 17.1 | 24 | 4.15 | 3.79 | 19.2 | 13.9 | 5.17 | 5.11 | 8.45 | 9.57 | 0.0615 µM
11 | Oc1ncc(N(CCCl)CCCl)c(O)n1 [Uracil mustard] | > 10 µM | > 10 µM | > 10 µM | > 10 µM | > 10 µM | > 10 µM | > 10 µM | > 10 µM | > 10 µM | – | > 10 µM | > 10 µM | > 10 µM | > 10 µM | 0 | 0 | 0 | 0 | 0 | 0 | 0 | 0 | 0 | 0 | 0.208 | 0 | 0 | 0 | 0 | > 10 µM
12 | COc1c2occc2cc2ccc(=O)oc12 [Methoxsalen] | > 10 µM | > 10 µM | > 10 µM | > 10 µM | > 10 µM | > 10 µM | > 10 µM | > 10 µM | > 10 µM | > 10 µM | > 10 µM | > 10 µM | > 10 µM | > 10 µM | 0 | 0 | 0 | 0 | 0 | 0 | 0 | 0 | 0 | 0 | 0 | 0 | 0 | 0 | 0 | > 10 µM
13 | O=C1CN2Cc3c(ccc(Cl)c3Cl)N=C2N1 [Anagrelide] | > 10 µM | > 10 µM | > 10 µM | > 10 µM | > 10 µM | > 10 µM | > 10 µM | > 10 µM | > 10 µM | > 10 µM | > 10 µM | > 10 µM | > 10 µM | > 10 µM | 0 | 0 | 0 | 0 | 0 | 0 | 0 | 0 | 0 | 0 | 0 | 0 | 0 | 0 | 0 | > 10 µM
14 | O=NN(CCCl)C(=O)NCCCl [Carmustine] | > 10 µM | > 10 µM | > 10 µM | > 10 µM | > 10 µM | > 10 µM | > 10 µM | > 10 µM | > 10 µM | > 10 µM | > 10 µM | > 10 µM | > 10 µM | > 10 µM | 0 | 0 | 0 | 0 | 0 | 0 | 0 | 0 | 0 | 0 | 0 | 0 | 0 | 0 | 0 | > 10 µM
15 | CS(=O)(=O)N1CCN(Cc2cc3nc(-c4cccc5[nH]ncc45)nc(N4CCOCC4)c3s2)CC1 [Pictilisib (GDC-0941)] | 0.182 µM | 0.514 µM | 0.202 µM | 0.415 µM | 0.472 µM | 0.359 µM | 0.283 µM | 0.582 µM | 0.148 µM | 0.419 µM | 0.713 µM | 0.884 µM | 0.208 µM | 0.453 µM | 17.2 | 11.3 | 17.4 | 12.1 | 9.95 | 10.2 | 16.4 | 8.69 | 14.7 | 15.4 | 12.8 | 9.41 | 9.59 | 12.7 | 9.23 | 0.201 µM
